Laboratory results taken from US11352352B2, “Aminopyrimidine compound, preparation method therefor and use thereof” (BEIJING ADAMADLE BIOTECHNOLOGY LIMITED LIABILITY COMPANY, priority 2017, dated 2022).
pIC50: −log10 of the molar value.

How the values were obtained:
Assay in all cases: Cell proliferation inhibition experiment, CellTiter-Glo (CTG) method
Format in all cases: cell-based
PC-9 = settings: Homo sapiens, PC-9, 72 h, PC-9 cells, 3 days
Protocol: (§1) Cell Proliferation Inhibition Experiment
(§2) Compounds were tested in the selected cell lines, and solvent is set as control, nine concentrations were detected with three parallel wells for each concentration.
(§3) 2. Reagents and Materials • 1) fetal bovine serum FBS (GIBCO, Cat #10099-141) • 2) CellTiter-Glo® Luminescent Cell Viability Assay (Promega, Cat #G7572) • 3) 96-well plate with flat clear bottom, black wall plates (Corning®, Cat #3340)
(§4) The first day: Incubation and plant of cells • 1) Cells in logarithmic growth phase were harvested and counted by cell counter. Cell viability was detected by trypan blue exclusion assay to ensure that the viability of each cell line was above 90%. • 2) Cell concentration was adjusted by diluting complete culture medium, and 90 μL cell suspension was added to a 96-well plate (T0 plate and drug plate to be tested) to make the cell density reach the specified concentration. • 3) Cells in 96-well plate were incubated overnight at condition of 37° C., 5% CO2 and 95% humidity.
(§5) The second day: Reading T0 plate • 1) 10 μL culture medium was added to T0 plate. • 2) CTG reagent was melt, while the cell plate was balanced to room temperature for 30 minutes. • 3) The same volume of CTG solution was added to each well. • 4) The cell plate was vibrated for 2 minutes on an orbital shaker to lyze the cells. • 5) The cell plate was placed at room temperature for 10 minutes to stabilize the cold light signal. • 6) The cold light value was read with EnVision.
(§6) Drug Addition • 1) Drug dilution. The compounds to be tested were dissolved and packaged, then a gradient elution was performed to obtain a solution diluted 10 times. • 2) Drug addition. […] drug solution was added into each well of the 96-well plate, which was inoculated cells, three parallel wells were set for each cell concentration.
(§7) The third day: reading plate at the terminal • 1) CTG reagent was melt, while the cell plate was balanced to room temperature for 30 minutes. • 2) The same volume of CTG solution was added to each well. • 3) The cell plate was vibrated for 2 minutes on an orbital shaker to lyze the cells. • 4) The cell plate was placed at room temperature for 10 minutes to stabilize the cold light signal. • 5) The cold light value was read with EnVision
(§8) Data were analyzed using GraphPad Prism 5.0 software, and non-linear S curve regression was used for fitting the data to give a dose-effect curve, IC50 value was calculated accordingly. Cell Survival Rate (%)=(Lumdrugs−Lumcontrol)/(Lumcell−Lumcontrol)×100%.

NCI-H1975 = settings: for pIC50: Homo sapiens, NCI-H1975, 72 h, NCI-H1975 cells, CTG, 3 days; for A-431/NCI-H1975 Selectivity: ratio of A-431 IC50 to NCI-H1975 IC50
Protocol: as §1, §2, §3, §4, §5, §6, §7, §8

A-431 = settings: Homo sapiens, A-431, 72 h, A-431 cells, 3 days
Protocol: as §1, §2, §3, §4, §5
Drug Addition • 1) Drug dilution. The compounds to be tested were dissolved and packaged, then a gradient elution was performed to obtain a solution diluted 10 times. • 2) Drug addition. […] drug solution was added into each well of the 96-well plate, which was inoculated cells, three parallel wells were set for each cell concentration. The highest concentration of the compounds to be tested on A-431 was 30 μM, nine concentrations was set with 3 times dilution; while the highest concentration on NCI-H1975 and PC-9 was 1.111 μM, 9 concentrations was set with 3 times dilution. • 3) Culture. Cells in 96-well plates in which drugs have been added were cultured at condition of 37° C., 5% CO2 and 95% humidity for 3 days, and then CTG assay was performed respectively.
as §7, §8

pIC50 (PC-9)	pIC50 (NCI-H1975)	pIC50 (A-431)	Structure (SMILES)	A-431/NCI-H1975 Selectivity (NCI-H1975)
8.25	8.33	6.05	C=CC(=O)Nc1cc(Nc2cc(-c3ccc4c(cnn4C)c3)ncn2)c(OC)cc1N(C)CCN(C)C [compound 1]	
8.36	8.18	6.44	C=CC(=O)Nc1cc(Nc2cc(-c3ccc4cnn(C)c4c3)ncn2)c(OC)cc1N(C)CCN(C)C [compound 2]	
8.00	7.82	6.29	C=CC(=O)Nc1cc(Nc2cc(-c3cc(C(F)(F)F)c4c(cnn4C)c3)ncn2)c(OC)cc1N(C)CCN(C)C [compound 4]	34.0
8.41	8.25	6.52	C=CC(=O)Nc1cc(Nc2cc(-c3cc4cnn(C)c4cc3F)ncn2)c(OC)cc1N(C)CCN(C)C [compound 5]	
7.71	7.49	5.76	C=CC(=O)Nc1cc(Nc2cc(-c3cc(F)c4c(cnn4C)c3)ncn2)c(OC)cc1N(C)CCN(C)C [compound 6]	53.7
7.97	7.95	6.89	C=CC(=O)Nc1cc(Nc2cc(-c3ccc4nn(C)cc4c3)ncn2)c(OC)cc1N(C)CCN(C)C [compound 7]	11.6
7.44	7.28	6.12	C=CC(=O)Nc1cc(Nc2cc(-c3ccc4ncsc4c3)ncn2)c(OC)cc1N1CCN(C)CC1 [compound 9]	14.6
7.56	7.33	5.70	C=CC(=O)Nc1cc(Nc2cc(-c3ccc4c(cnn4C)c3)ncn2)c(OC)cc1N1CC(N(C)C)C1 [compound 10]	42.0
7.66	7.17	5.67	C=CC(=O)Nc1cc(Nc2cc(-c3ccc4c(cnn4C)c3)ncn2)c(OC)cc1C1CCN(C)CC1 [compound 11]	31.7
7.24	7.27	5.38	C=CC(=O)Nc1cc(Nc2cc(-c3ccc4c(cnn4C)c3)ncn2)c(OC)cc1C(=O)N1CCN(C)CC1 [compound 12]	77.7
8.07	8.74	6.11	C=CC(=O)Nc1c(N(C)CCN(C)C)cc(OC)c(Nc2cc(-c3ccc4c(cnn4C)c3)ncn2)c1F [compound 13]	
8.23	8.21	5.94	C=CC(=O)Nc1cc(Nc2cc(-c3ccc4c(cnn4CC)c3)ncn2)c(OC)cc1N(C)CCN(C)C [compound 14]	188.0
7.90	7.67	5.89	C=CC(=O)Nc1cc(Nc2cc(-c3ccc4c(cnn4C(C)C)c3)ncn2)c(OC)cc1N(C)CCN(C)C [compound 15]	59.7
7.39	7.24	5.81	C=CC(=O)Nc1cc(Nc2nccc(-c3ccc4cnn(C)c4c3)n2)c(OC)cc1N(C)CCN(C)C [compound 16]	27.1
7.77	7.65	5.90	C=CC(=O)Nc1cc(Nc2nccc(-c3ccc4cnn(C(C)C)c4c3)n2)c(OC)cc1N(C)CCN(C)C [compound 17]	56.2
8.05	7.95	6.01	C=CC(=O)Nc1cc(Nc2cc(-c3ccc4c(cnn4C)c3)ncn2)c(OC)cc1N1CCN(CC)CC1 [compound 18]	88.8
7.97	7.74	6.07	C=CC(=O)Nc1cc(Nc2cc(-c3ccc4c(cnn4C)c3)ncn2)c(OC)cc1N1CCN(C(C)C)CC1 [compound 19]	47.0

pIC50 (PC-9)	pIC50 (NCI-H1975)	pIC50 (A-431)	Structure (SMILES)	A-431/NCI-H1975 Selectivity (NCI-H1975)
7.60	7.34	5.81	C=CC(=O)Nc1cc(Nc2cc(-c3ccc4c(cnn4C)c3)ncn2)c(OC)cc1N1CCN(C(C)=O)CC1 [compound 20]	33.9
7.53	7.33	5.56	C=CC(=O)Nc1cc(Nc2cc(-c3ccc4c(cnn4C)c3)ncn2)c(OC)cc1N1CCN(C)C[C@H]1C [compound 21]	59.7
7.87	7.74	5.98	C=CC(=O)Nc1cc(Nc2cc(-c3ccc4c(cnn4C)c3)ncn2)c(OC)cc1N1CCN(C)C(C)C1 (stereo not drawn) [compound 22]	58.3
7.17	7.26	6.13	C=CC(=O)Nc1cc(Nc2cc(-c3ccc4c(cnn4C)c3)ncn2)c(OC)cc1N1C[C@@H]2C[C@H]1CN2C [compound 25]	13.5
7.71	7.49	5.85	C=CC(=O)Nc1cc(Nc2cc(-c3ccc4c(cnn4C)c3)ncn2)c(OC)cc1N1CCN(CC)[C@@H](C)C1 [compound 28]	44.2
7.10	7.25	5.74	C=CC(=O)Nc1cc(Nc2cc(-c3ccc4c(cnn4C)c3)ncn2)c(OC)cc1N1CCN(CC)[C@H](C)C1 [compound 29]	32.6
7.61	7.49	5.87	C=CC(=O)Nc1cc(Nc2cc(-c3ccc4c(cnn4C)c3)ncn2)c(OC)cc1N1CCN(C)[C@@H](C)C1 [compound 30]	41.8
7.34	7.28	5.80	C=CC(=O)Nc1cc(Nc2cc(-c3ccc4c(cnn4C)c3)ncn2)c(OC)cc1N1CCN(C)[C@H](C)C1 [compound 31]	29.9
7.96	6.73	5.03	C=CC(=O)Nc1cc(Nc2cc(-c3ccc4c(cnn4C)c3)ncn2)c(OC)cc1N1CCN(CC(F)(F)F)CC1 [compound 32]	50.1
7.66	7.50	5.99	C=CC(=O)Nc1cc(Nc2cc(-c3ccc4c(cnn4C)c3)ncn2)c(OC)cc1N(C)CCN1CCCC1 [compound 36]	32.3
7.10	7.17	5.76	C=CC(=O)Nc1cc(Nc2cc(-c3ccc4c(cnn4C)c3)ncn2)c(OC)cc1N(C)CCN1CCCCC1 [compound 37]	25.5
7.05	7.12	5.48	C=CC(=O)Nc1cc(Nc2cc(-c3ccc4c(cnn4C)c3)ncn2)c(OC)cc1N(C)CCN1CCOCC1 [compound 38]	43.7
7.59	7.61	6.01	C=CC(=O)Nc1cc(Nc2cc(-c3ccc4c(cnn4C)c3)ncn2)c(OC)cc1N1CCCN(C)CC1 [compound 39]	39.6
7.34	7.24	5.71	C=CC(=O)Nc1cc(Nc2cc(-c3ccc4c(cnn4C)c3)ncn2)c(OC)cc1N(C)CCCN(C)C [compound 40]	34.5
7.97	7.69	6.21	C=CC(=O)Nc1cc(Nc2cc(-c3ccc4cnn(C)c4c3)ncn2)c(OC)cc1N1CCN(C)C(C)C1 (stereo not drawn) [compound 41]	30.0
	7.88	5.85	C=CC(=O)Nc1cc(Nc2cc(-c3ccc4c(cnn4C)c3)ncn2)c(OC)cc1N(C)C1CCN(C)C1 (stereo not drawn) [compound 57]	
	7.01	5.70	C=CC(=O)Nc1cc(Nc2cc(-c3ccc4c(cnn4C)c3)ncn2)c(OC)cc1N(C)C1CCOCC1 [compound 106]	20.8

Structure (SMILES)	pIC50 (PC-9)	pIC50 (NCI-H1975)	pIC50 (A-431)	A-431/NCI-H1975 Selectivity (NCI-H1975)
C=CC(=O)Nc1cc(Nc2cc(-c3ccc4c(cnn4C)c3)ncn2)c(OC)cc1N(C)C1CCN(C)CC1 [compound 35]	7.79	7.88	5.80	
